Measurements published in patent EP4700027A1, “CRYSTALLINE FORM OF NITROGEN-CONTAINING TETRACYCLIC COMPOUND AND PREPARATION METHOD THEREFOR” (Jiangsu Hengrui Pharmaceuticals Co., Ltd., priority 2023, dated 2024).

What was measured:
H358 cells = experiment: H358 cell proliferation assay (CellTiter-Glo); type: cell-based; conditions: Homo sapiens, NCI-H358; inhibitory activity against H358 cell proliferation, 120 h incubation
Procedure: The inhibitory activity of the compound of the present disclosure against H358 cell proliferation was measured. Below is a brief description of the experimental method: H358 cells (ATCC, CRL-5807) were cultured in RPMI1640 medium (Hyclone, SH30809.01) containing 10% fetal bovine serum (Corning, 35-076-CV) (i.e., complete medium). On the first day of the experiment, H358 cells were seeded into a 96-well plate at a density of 1200 cells/well using complete medium, with 100 µL of cell suspension per well, and the plate was incubated overnight in a 5% CO2 cell incubator at 37 °C. On the second day, the test compound, prepared in complete medium and serially diluted, was added at 10 µL/well. The final concentrations of the compound were 9 concentration points obtained by a 5-fold serial dilution from 10 µM. A blank control containing 0.5% DMSO was set up. The plate was incubated for 120 h in a 5% CO2 cell incubator at 37 °C. On the seventh day, the 96-well cell plate was removed from the incubator, and Cell Titer-Glo® Luminescent Cell Viability Assay (Promega, G7573) was added at 50 µL/well. After the plate was left to stand at room temperature for 10 min, the luminescence signal values were measured using a multifunctional microplate reader (PerkinElmer, EnVision® 2105), and the IC50 value for the inhibitory activity of the compound was calculated using Graphpad Prism software. Table 1. […]

MIA PaCa-2 cells = experiment: MIA PaCa-2 cell proliferation assay (CellTiter-Glo); type: cell-based; conditions: Homo sapiens; inhibitory activity against MIA PaCa-2 cell proliferation, 72 h incubation
Procedure: The inhibitory activity of the compound of the present disclosure against MIA PaCa-2 cell proliferation was measured. Below is a brief description of the experimental method: MIA PaCa-2 cells (ATCC, CRL-1420) were cultured in DMEM/HIGH GLUCOSE medium (GE, SH30243.01) containing 10% fetal bovine serum (Corning, 35-076-CV) and 2.5% horse serum (Beyotime Biological Tech., C0262) (i.e., complete medium). On the first day of the experiment, MIA PaCa-2 cells were seeded into a 96-well plate at a density of 500 cells/well using complete medium, with 90 µL of cell suspension per well, and the plate was incubated overnight in a 5% CO2 cell incubator at 37 °C. On the second day, the test compound, prepared in complete medium and serially diluted, was added at 10 µL/well. The final concentrations of the compound were 9 concentration points obtained by a 5-fold serial dilution from 10 µM. A blank control containing 0.5% DMSO was set up. The plate was incubated for 72 h in a 5% CO2 cell incubator at 37 °C. […] After the plate was left to stand at room temperature for 10 min, the luminescence signal values were measured using a multifunctional microplate reader (PerkinElmer, EnVision2015). The IC50 value for the inhibitory activity of the compound was calculated using Graphpad Prism software. […]

[1] = Dynamic vapor sorption (DVS) hygroscopicity testing; type: physicochemical; conditions: for desorption process of the sample versus its adsorption process: humidity changing from 0% to 95% RH
From the text: According to the description of hygroscopicity characteristics and the definitions of hygroscopic weight gains in "General Rule 9103, Guidelines for Hygroscopicity Trials for Pharmaceuticals" in the Chinese Pharmacopoeia, Volume IV, 2015 Edition, • deliquescent: sufficient water is absorbed to form a liquid; • extremely hygroscopic: the hygroscopic weight gain is not less than 15%; • hygroscopic: the hygroscopic weight gain is less than 15% but not less than 2%; • slightly hygroscopic: the hygroscopic weight gain is less than 2% but not less than 0.2%; nonhygroscopic or practically nonhygroscopic: the hygroscopic weight gain is less than 0.2%.
DVS refers to dynamic vapor sorption: The analysis was performed using SMS DVS Advantage; at 25 °C, the humidity was changed as follows: 50%-95%-0%-95%-50%, in steps of 10% (5% for the last step) (specific humidity ranges are shown in corresponding patterns, and those listed here were used in most cases); the criterion was dm/dt being not greater than 0.002%.

[2] = Influencing factor stability study on crystal forms (light, high temperature, high humidity, 30 days); type: physicochemical
[3] = accelerated experimental conditions (70% RH)
[4] = normal storage conditions (25 °C and 60% RH)
[5] = Light exposure (4500 Lux), 7 days
[6] = Light exposure (4500 Lux), 14 days
[7] = Light exposure (4500 Lux), 30 days

`C=CC(=O)N1CCN2C(=O)c3cc(F)c(-c4ccc(F)c5sc(N)c(C#N)c45)c4c(Cl)nn(c34)CC[C@H]2C1` (atropisomer, axis not shown) [Compound 1, (S)-4-((S)-10-acryloyl-4-chloro-2-fluoro-14-oxo-8,8a,9,10,11,12-hexahydro-7H,14H-pyrazino[1',2':5,6][1,5]diazocino[3,2,1-hi]indazol-3-yl)-2-amino-7-fluorobenzo[b]thiophene-3-carbonitrile] gave an IC50 (H358 cells) of 0.74 nM and an IC50 (MIA PaCa-2 cells) of 0.28 nM.

In the case of `C=CC(=O)N1CCN2C(=O)c3cc(F)c(-c4ccc(F)c5sc(N)c(C#N)c45)c4c(Cl)nn(c34)CC[C@H]2C1` [crystal form G], the hygroscopic weight gain [1, 3] is reported as “about 1.21%”, the “crystal form re-identified after DVS testing” value (shortened to “crystal form re-identified”) [1] is reported as “did not change” and the hygroscopic weight gain ([1]; extreme conditions (90% RH)) is reported as “about 1.60%”. The “desorption process of the sample versus its adsorption process” value [1] was “substantially overlapped”, the hygroscopic weight gain [1, 4] was “about 1.04%” and the Color and state ([2]; 40 °C, 7 days) was “Off-white solid”. For the same compound, the Crystal form ([2]; 40 °C, 7 days) was “Did not change”, the “Purity (%)” value ([2]; 40 °C, 7 days) was 98.2% and the Color and state ([2]; 40 °C, 14 days) was “Off-white solid”. The Crystal form ([2]; 40 °C, 14 days) was “Did not change”, the “Purity (%)” value ([2]; 40 °C, 14 days) was 97.8% and the Color and state ([2]; 40 °C, 30 days) was “Off-white solid”. The Crystal form ([2]; 40 °C, 30 days) was “Did not change”, the “Purity (%)” value ([2]; 40 °C, 30 days) was 97.7% and the Color and state ([2]; 60 °C, 7 days) was “Off-white solid”. The Crystal form ([2]; 60 °C, 7 days) was “Did not change”, the “Purity (%)” value ([2]; 60 °C, 7 days) was 98.3% and the Color and state ([2]; 60 °C, 14 days) was “Off-white solid”. The Crystal form ([2]; 60 °C, 14 days) was “Did not change”, the “Purity (%)” value ([2]; 60 °C, 14 days) was 98.1% and the Color and state ([2]; 60 °C, 30 days) was “Off-white solid”. For the same compound, the Crystal form ([2]; 60 °C, 30 days) was “Did not change”, the “Purity (%)” value ([2]; 60 °C, 30 days) was 98.1% and the Color and state ([2]; 75% RH, 7 days) was “Off-white solid”. For the same compound, the Crystal form ([2]; 75% RH, 7 days) was “Did not change”, the “Purity (%)” value ([2]; 75% RH, 7 days) was 98.5% and the Color and state ([2]; 75% RH, 14 days) was “Off-white solid”. For the same compound, the Crystal form ([2]; 75% RH, 14 days) was “Did not change”, the “Purity (%)” value ([2]; 75% RH, 14 days) was 98.5% and the Color and state ([2]; 75% RH, 30 days) was “Off-white solid”. For the same compound, the Crystal form ([2]; 75% RH, 30 days) was “Did not change”, the “Purity (%)” value ([2]; 75% RH, 30 days) was 98.5% and the Color and state ([2]; 92.5% RH, 7 days) was “Off-white solid”. The Crystal form ([2]; 92.5% RH, 7 days) was “Did not change”, the “Purity (%)” value ([2]; 92.5% RH, 7 days) was 98.5% and the Color and state ([2]; 92.5% RH, 14 days) was “Off-white solid”. For the same compound, the Crystal form ([2]; 92.5% RH, 14 days) was “Did not change”, the “Purity (%)” value ([2]; 92.5% RH, 14 days) was 98.5% and the Color and state ([2]; 92.5% RH, 30 days) was “Off-white solid”. The Crystal form ([2]; 92.5% RH, 30 days) was “Did not change”, the “Purity (%)” value ([2]; 92.5% RH, 30 days) was 98.5% and the Color and state ([2]; Initial, 0 days) was “Off-white solid”. For the same compound, the Crystal form ([2]; Initial, 0 days) was “Crystal form G”, the “Purity (%)” value ([2]; Initial, 0 days) was 98.5% and the Color and state [2, 5] was “Off-white solid”. The Crystal form [2, 5] was “Did not change”, the “Purity (%)” value [2, 5] was 98.5% and the Color and state [2, 6] was “Off-white solid”. The Crystal form [2, 6] was “Did not change”, the “Purity (%)” value [2, 6] was 98.4% and the Color and state [2, 7] was “Off-white solid”. For the same compound, the Crystal form [2, 7] was “Did not change” and the “Purity (%)” value [2, 7] was 98.3%.

In the case of `C=CC(=O)N1CCN2C(=O)c3cc(F)c(-c4ccc(F)c5sc(N)c(C#N)c45)c4c(Cl)nn(c34)CC[C@H]2C1` [crystal form M], the hygroscopic weight gain [1, 3] is reported as “about 0.55%”, the “crystal form re-identified” value [1] is reported as “did not change” and the hygroscopic weight gain ([1]; extreme conditions (90% RH)) is reported as “about 0.73%”. The “desorption process of the sample versus its adsorption process” value [1] was “substantially overlapped”, the hygroscopic weight gain [1, 4] was “about 0.48%” and the Color and state ([2]; 40 °C, 7 days) was “Off-white solid”. For the same compound, the Crystal form ([2]; 40 °C, 7 days) was “Did not change”, the “Purity (%)” value ([2]; 40 °C, 7 days) was 99.1% and the Color and state ([2]; 40 °C, 14 days) was “Off-white solid”. The Crystal form ([2]; 40 °C, 14 days) was “Did not change”, the “Purity (%)” value ([2]; 40 °C, 14 days) was 99.1% and the Color and state ([2]; 40 °C, 30 days) was “Off-white solid”. For the same compound, the Crystal form ([2]; 40 °C, 30 days) was “Did not change”, the “Purity (%)” value ([2]; 40 °C, 30 days) was 98.9% and the Color and state ([2]; 60 °C, 7 days) was “Off-white solid”. The Crystal form ([2]; 60 °C, 7 days) was “Did not change”, the “Purity (%)” value ([2]; 60 °C, 7 days) was 99.1% and the Color and state ([2]; 60 °C, 14 days) was “Off-white solid”. The Crystal form ([2]; 60 °C, 14 days) was “Did not change”, the “Purity (%)” value ([2]; 60 °C, 14 days) was 99.1% and the Color and state ([2]; 60 °C, 30 days) was “Off-white solid”. For the same compound, the Crystal form ([2]; 60 °C, 30 days) was “Did not change”, the “Purity (%)” value ([2]; 60 °C, 30 days) was 99.0% and the Color and state ([2]; 75% RH, 7 days) was “Off-white solid”. For the same compound, the Crystal form ([2]; 75% RH, 7 days) was “Did not change”, the “Purity (%)” value ([2]; 75% RH, 7 days) was 99.2% and the Color and state ([2]; 75% RH, 14 days) was “Off-white solid”. For the same compound, the Crystal form ([2]; 75% RH, 14 days) was “Did not change”, the “Purity (%)” value ([2]; 75% RH, 14 days) was 99.2% and the Color and state ([2]; 75% RH, 30 days) was “Off-white solid”. The Crystal form ([2]; 75% RH, 30 days) was “Did not change”, the “Purity (%)” value ([2]; 75% RH, 30 days) was 99.2% and the Color and state ([2]; 92.5% RH, 7 days) was “Off-white solid”. The Crystal form ([2]; 92.5% RH, 7 days) was “Did not change”, the “Purity (%)” value ([2]; 92.5% RH, 7 days) was 99.2% and the Color and state ([2]; 92.5% RH, 14 days) was “Off-white solid”. For the same compound, the Crystal form ([2]; 92.5% RH, 14 days) was “Did not change”, the “Purity (%)” value ([2]; 92.5% RH, 14 days) was 99.2% and the Color and state ([2]; 92.5% RH, 30 days) was “Off-white solid”. For the same compound, the Crystal form ([2]; 92.5% RH, 30 days) was “Did not change”, the “Purity (%)” value ([2]; 92.5% RH, 30 days) was 99.2% and the Color and state ([2]; Initial, 0 days) was “Off-white solid”. For the same compound, the Crystal form ([2]; Initial, 0 days) was “Crystal form M”, the “Purity (%)” value ([2]; Initial, 0 days) was 99.2% and the Color and state [2, 5] was “Off-white solid”. For the same compound, the Crystal form [2, 5] was “Did not change”, the “Purity (%)” value [2, 5] was 99.2% and the Color and state [2, 6] was “Off-white solid”. The Crystal form [2, 6] was “Did not change”, the “Purity (%)” value [2, 6] was 99.2% and the Color and state [2, 7] was “Off-white solid”. For the same compound, the Crystal form [2, 7] was “Did not change” and the “Purity (%)” value [2, 7] was 99.0%.

For `C=CC(=O)N1CCN2C(=O)c3cc(F)c(-c4ccc(F)c5sc(N)c(C#N)c45)c4c(Cl)nn(c34)CC[C@H]2C1` [crystal form N], the hygroscopic weight gain [1, 3] was “about 3.06%”, the “crystal form re-identified” value [1] was “did not change” and the hygroscopic weight gain ([1]; extreme conditions (90% RH)) was “about 3.18%”. For the same compound, the “desorption process of the sample versus its adsorption process” value [1] was “substantially overlapped”, the hygroscopic weight gain [1, 4] was “about 3.00%” and the Color and state ([2]; 60 °C, 30 days) was “Off-white solid”. For the same compound, the Crystal form ([2]; 60 °C, 30 days) was “Did not change”, the “Purity (%)” value ([2]; 60 °C, 30 days) was 98.9% and the Color and state ([2]; 75% RH, 7 days) was “Off-white solid”. For the same compound, the Crystal form ([2]; 75% RH, 7 days) was “Did not change”, the “Purity (%)” value ([2]; 75% RH, 7 days) was 99.2% and the Color and state ([2]; 75% RH, 14 days) was “Off-white solid”. For the same compound, the Crystal form ([2]; 75% RH, 14 days) was “Did not change”, the “Purity (%)” value ([2]; 75% RH, 14 days) was 99.1% and the Color and state ([2]; 75% RH, 30 days) was “Off-white solid”. For the same compound, the Crystal form ([2]; 75% RH, 30 days) was “Did not change” and the “Purity (%)” value ([2]; 75% RH, 30 days) was 99.1%.
